From article PMC10692375 (Acta Pharmaceutica Sinica. B, 2023)

Tested on: 22Rv1 xenografts
Experiment: 22Rv1 xenograft model
Assay type: in vivo, mice
Settings: DD1-Br 0.1 mg/kg i.p., ENZ 10 mg/kg p.o., alone or combined, 5 times a week

For `CNC(=O)c1ccc(N2C(=S)N(c3ccc(C#N)c(C(F)(F)F)c3)C(=O)C2(C)C)cc1F` [ENZ, enzalutamide], which tumor growth is on record?
Its tumor growth is “did not show significant effect”.
